Source: PubChem BioAssay (NCI)
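Interpolation was linear, between the two tested concentrations surrounding the appropriate level; five concentrations were tested over 48 hours in 96-well plates. TGI denotes the concentration required for complete inhibition of growth.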

How the values were obtained:
Assay in all cases: NCI-60 cell line screen, 48 h
[1] = tested on: 786-0 renal
[2] = tested on: A498 renal
[3] = tested on: A549 NSCLC
[4] = tested on: ACHN renal
[5] = tested on: CAKI-1 renal
[6] = tested on: CCRF-CEM leukemia
[7] = tested on: COLO 205 colon
[8] = tested on: DU-145 prostate
[9] = tested on: EKVX NSCLC
[10] = tested on: HCC-2998 colon
[11] = tested on: HCT-116 colon
[12] = tested on: HCT-15 colon
[13] = tested on: HOP-62 NSCLC
[14] = tested on: HOP-92 NSCLC
[15] = tested on: HS 578T breast
[16] = tested on: HT29 colon
[17] = tested on: IGROV1 ovarian
[18] = tested on: K-562 leukemia
[19] = tested on: KM12 colon
[20] = tested on: LOX IMVI melanoma
[21] = tested on: M14 melanoma
[22] = tested on: MALME-3M melanoma
[23] = tested on: MCF7 breast
[24] = tested on: MDA-MB-231 breast
[25] = tested on: MDA-MB-435
[26] = tested on: MDA-N
[27] = tested on: MOLT-4 leukemia
[28] = tested on: NCI-H226 lung
[29] = tested on: NCI-H23 lung
[30] = tested on: NCI-H460 lung
[31] = tested on: NCI-H522 lung
[32] = tested on: NCI/ADR-RES ovarian
[33] = tested on: OVCAR-3 ovarian
[34] = tested on: OVCAR-4 ovarian
[35] = tested on: OVCAR-5 ovarian
[36] = tested on: OVCAR-8 ovarian
[37] = tested on: PC-3 prostate
[38] = tested on: RPMI-8226 leukemia
[39] = tested on: RXF 393 renal
[40] = tested on: SF-268 CNS
[41] = tested on: SF-295 CNS
[42] = tested on: SF-539 CNS
[43] = tested on: SK-MEL-2 melanoma
[44] = tested on: SK-MEL-28 melanoma
[45] = tested on: SK-MEL-5 melanoma
[46] = tested on: SK-OV-3 ovarian
[47] = tested on: SN12C renal
[48] = tested on: SNB-19 CNS
[49] = tested on: SNB-75 CNS
[50] = tested on: SR leukemia
[51] = tested on: SW-620 colon
[52] = tested on: T-47D breast
[53] = tested on: UACC-257 melanoma
[54] = tested on: UACC-62 melanoma
[55] = tested on: UO-31 renal
[56] = tested on: HL-60(TB) leukemia
[57] = tested on: TK-10 renal
[58] = tested on: U251 CNS
[59] = tested on: BT-549 breast

In the case of `C=[N+](CNC(=O)CNC(=O)C(Cc1ccccc1)NC(=O)OC(C)(C)C)C(=O)CNC(=O)C(Cc1ccccc1)NC(=O)OC(C)(C)C` (stereo not drawn), the TGI [1] is reported as over 100 µM, the TGI [2] is reported as over 100 µM and the TGI [3] is reported as over 100 µM. For the same compound, the TGI [4] was over 100 µM, the TGI [5] was over 100 µM and the TGI [6] was over 100 µM. It also gave a TGI [7] of over 100 µM, a TGI [8] of over 100 µM and a TGI [9] of over 100 µM. For the same compound, the TGI [10] was over 100 µM, the TGI [11] was over 100 µM and the TGI [12] was over 100 µM. It also gave a TGI [13] of over 100 µM, a TGI [14] of over 100 µM and a TGI [15] of over 100 µM. It also gave a TGI [16] of over 100 µM, a TGI [17] of over 100 µM and a TGI [18] of over 100 µM. For the same compound, the TGI [19] was over 100 µM, the TGI [20] was over 100 µM and the TGI [21] was over 100 µM. It also gave a TGI [22] of over 100 µM, a TGI [23] of over 100 µM and a TGI [24] of over 100 µM. The TGI [25] was over 100 µM, the TGI [26] was over 100 µM and the TGI [27] was over 100 µM. It also gave a TGI [28] of over 100 µM, a TGI [29] of over 100 µM and a TGI [30] of over 100 µM. For the same compound, the TGI [31] was over 100 µM, the TGI [32] was over 100 µM and the TGI [33] was over 100 µM. The TGI [34] was over 100 µM, the TGI [35] was over 100 µM and the TGI [36] was over 100 µM. It also gave a TGI [37] of over 100 µM, a TGI [38] of over 100 µM and a TGI [39] of over 100 µM. It also gave a TGI [40] of over 100 µM, a TGI [41] of over 100 µM and a TGI [42] of over 100 µM. The TGI [43] was over 100 µM, the TGI [44] was over 100 µM and the TGI [45] was over 100 µM. The TGI [46] was over 100 µM, the TGI [47] was over 100 µM and the TGI [48] was over 100 µM. It also gave a TGI [49] of over 100 µM, a TGI [50] of over 100 µM and a TGI [51] of over 100 µM. For the same compound, the TGI [52] was over 100 µM, the TGI [53] was over 100 µM and the TGI [54] was over 100 µM. For the same compound, the TGI [55] was over 100 µM.
`Cc1ccc(S(=O)(=O)N/N=C2\CC3C4CCC3C2C4)cc1` (stereo not drawn) showed a TGI [1] of over 100 µM, a TGI [2] of over 100 µM and a TGI [3] of over 100 µM. It also gave a TGI [4] of over 100 µM, a TGI [5] of over 100 µM and a TGI [6] of over 100 µM. The TGI [7] was over 100 µM, the TGI [8] was over 100 µM and the TGI [9] was over 100 µM. For the same compound, the TGI [10] was over 100 µM, the TGI [11] was over 100 µM and the TGI [12] was over 100 µM. The TGI [56] was over 100 µM, the TGI [13] was over 100 µM and the TGI [14] was over 100 µM. For the same compound, the TGI [15] was over 100 µM, the TGI [16] was over 100 µM and the TGI [17] was over 100 µM. The TGI [18] was over 100 µM, the TGI [19] was over 100 µM and the TGI [20] was over 100 µM. The TGI [21] was over 100 µM, the TGI [22] was over 100 µM and the TGI [23] was over 100 µM. It also gave a TGI [24] of over 100 µM, a TGI [25] of over 100 µM and a TGI [26] of over 100 µM. For the same compound, the TGI [27] was over 100 µM, the TGI [28] was over 100 µM and the TGI [29] was over 100 µM. It also gave a TGI [30] of over 100 µM, a TGI [31] of over 100 µM and a TGI [32] of over 100 µM. It also gave a TGI [33] of over 100 µM, a TGI [34] of over 100 µM and a TGI [35] of over 100 µM. For the same compound, the TGI [36] was over 100 µM, the TGI [37] was over 100 µM and the TGI [39] was over 100 µM. It also gave a TGI [40] of over 100 µM, a TGI [41] of over 100 µM and a TGI [42] of over 100 µM. For the same compound, the TGI [43] was over 100 µM, the TGI [44] was over 100 µM and the TGI [45] was over 100 µM. The TGI [46] was over 100 µM, the TGI [47] was over 100 µM and the TGI [48] was over 100 µM. The TGI [49] was over 100 µM, the TGI [50] was over 100 µM and the TGI [51] was over 100 µM. For the same compound, the TGI [52] was over 100 µM, the TGI [57] was over 100 µM and the TGI [58] was over 100 µM. For the same compound, the TGI [53] was over 100 µM, the TGI [54] was over 100 µM and the TGI [55] was over 100 µM.
In the case of `COc1ccc(NC(C)=O)cc1N1C(=O)/C(=C\c2cccc(Oc3ccccc3)c2)SC1c1ccccc1` (stereo not drawn), the TGI [1] is reported as over 100 µM, the TGI [2] is reported as over 100 µM and the TGI [3] is reported as over 100 µM. It also gave a TGI [4] of over 100 µM, a TGI [59] of over 100 µM and a TGI [5] of over 100 µM. For the same compound, the TGI [6] was 67.2 µM, the TGI [7] was 39.9 µM and the TGI [8] was over 100 µM. For the same compound, the TGI [9] was over 100 µM, the TGI [10] was over 100 µM and the TGI [11] was 23.8 µM. The TGI [12] was over 100 µM, the TGI [56] was 37.9 µM and the TGI [13] was over 100 µM. For the same compound, the TGI [14] was 79.6 µM, the TGI [16] was 45.5 µM and the TGI [17] was over 100 µM. It also gave a TGI [18] of over 100 µM, a TGI [19] of over 100 µM and a TGI [20] of 55.5 µM. It also gave a TGI [21] of over 100 µM, a TGI [22] of over 100 µM and a TGI [23] of over 100 µM. The TGI [24] was over 100 µM, the TGI [25] was over 100 µM and the TGI [26] was 81.9 µM. It also gave a TGI [27] of 82.6 µM, a TGI [28] of over 100 µM and a TGI [29] of over 100 µM. For the same compound, the TGI [30] was over 100 µM, the TGI [31] was over 100 µM and the TGI [32] was 54.8 µM. It also gave a TGI [33] of 71.3 µM, a TGI [34] of over 100 µM and a TGI [35] of over 100 µM. The TGI [36] was 64.8 µM, the TGI [37] was over 100 µM and the TGI [38] was 61.9 µM. The TGI [39] was over 100 µM, the TGI [41] was over 100 µM and the TGI [43] was over 100 µM. The TGI [44] was over 100 µM, the TGI [45] was over 100 µM and the TGI [46] was over 100 µM. It also gave a TGI [47] of 64.6 µM, a TGI [48] of over 100 µM and a TGI [49] of over 100 µM. For the same compound, the TGI [50] was 29.4 µM, the TGI [51] was 71.1 µM and the TGI [52] was over 100 µM. The TGI [57] was over 100 µM, the TGI [58] was over 100 µM and the TGI [53] was over 100 µM. For the same compound, the TGI [54] was over 100 µM and the TGI [55] was over 100 µM.
